# Laboratory results published in patent publication US8735398B2 (Bristol-Myers Squibb Company, priority 2009, dated 2014).
# System: HCV 1b genotype
# Assay: HCV replicon assay (HCV-neo replicon cells, wild-type)
# Type: cell-based, Hepatitis C virus
# Details: Hepatitis C virus, HCV 1b genotype replicon; class symbol; read-out: EC50 Range against HCV 1b
# Outline: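 Inhibition was tested in replicon-bearing cells, both wild-type HCV-neo and lines with NS5A resistance substitutions, using the O'Boyle et al. 2005 replicon method or luciferase-reporter formats.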
row,SMILES,EC50 [nM]
1,"C[C@H](NC(=O)c1cccc(Cl)n1)C(=O)Nc1ccc(-c2nnc(-c3ccc(NC(=O)[C@H](C)NC(=O)c4cccc(Cl)n4)cc3)o2)cc1 [RK-20, N,N′-(1,3,4-oxadiazole-2,5-diylbis(4,1-phenyleneimino((2S)-1-oxo-1,2-propanediyl)))bis(6-chloro-2-pyridinecarboxamide)]",1000 to 10000
2,"C[C@H](NC(=O)c1ccco1)C(=O)Nc1ccc(-c2nnc(-c3ccc(NC(=O)[C@H](C)NC(=O)c4ccco4)cc3)o2)cc1 [RK-21, N,N′-(1,3,4-oxadiazole-2,5-diylbis(4,1-phenyleneimino((2S)-1-oxo-1,2-propanediyl)))di(2-furamide)]",1000 to 10000
3,"COc1cc(C(=O)N[C@@H](C)C(=O)Nc2ccc(-c3nnc(-c4ccc(NC(=O)[C@H](C)NC(=O)c5cc(OC)c6ccccc6n5)cc4)o3)cc2)nc2ccccc12 [RK-22, N,N′-(1,3,4-oxadiazole-2,5-diylbis(4,1-phenyleneimino((2S)-1-oxo-1,2-propanediyl)))bis(4-methoxy-2-quinolinecarboxamide)]",100 to 999
4,"C[C@H](NC(=O)Cc1ccccc1)C(=O)Nc1ccc(-c2nnc(-c3ccc(NC(=O)[C@H](C)NC(=O)Cc4ccccc4)cc3)o2)cc1 [RK-23, (2S,2′S)-N,N′-(1,3,4-oxadiazole-2,5-diyldi-4,1-phenylene)bis(2-((phenylacetyl)amino)propanamide)]",100 to 999
5,"C[C@H](NC(=O)[C@@H](O)c1ccccc1)C(=O)Nc1ccc(-c2nnc(-c3ccc(NC(=O)[C@H](C)NC(=O)[C@@H](O)c4ccccc4)cc3)o2)cc1 [RK-24, (2S,2′S)-N,N′-(1,3,4-oxadiazole-2,5-diyldi-4,1-phenylene)bis(2-(((2S)-2-hydroxy-2-phenylacetyl)amino)propanamide)]",100 to 999
6,"O=C(Nc1ccc(-c2nnc(-c3ccc(NC(=O)[C@H]4CCCN4C(=O)c4cccc(F)n4)cc3)o2)cc1)[C@H]1CCCN1C(=O)c1cccc(F)n1 [RK-25, (2R,2′R)-N,N′-(1,3,4-oxadiazole-2,5-diyldi-4,1-phenylene)bis(1-((6-fluoro-2-pyridinyl)carbonyl)-2-pyrrolidinecarboxamide)]",100 to 999
7,"COc1cc(C(=O)N2CCC[C@H](C(=O)Nc3ccc(-c4nnc(-c5ccc(NC(=O)[C@H]6CCCN(C(=O)c7cc(OC)c8ccccc8n7)C6)cc5)o4)cc3)C2)nc2ccccc12 [RK-26, (3S,3′S)-N,N′-(1,3,4-oxadiazole-2,5-diyldi-4,1-phenylene)bis(1-((4-methoxy-2-quinolinyl)carbonyl)-3-piperidinecarboxamide)]",1000 to 10000
8,"O=C(Nc1ccc(-c2nnc(-c3ccc(NC(=O)[C@@H]4CCCN4C(=O)c4cc(Cl)ccn4)cc3)o2)cc1)[C@@H]1CCCN1C(=O)c1cc(Cl)ccn1 [RK-27, (2S,2′S)-N,N′-(1,3,4-oxadiazole-2,5-diyldi-4,1-phenylene)bis(1-((4-chloro-2-pyridinyl)carbonyl)-2-pyrrolidinecarboxamide)]",100 to 999
9,"C[C@](O)(C(=O)N1CCC[C@H]1C(=O)Nc1ccc(-c2nnc(-c3ccc(NC(=O)[C@@H]4CCCN4C(=O)[C@](C)(O)c4ccccc4)cc3)o2)cc1)c1ccccc1 [RK-28, (2S,2′S)-N,N′-(1,3,4-oxadiazole-2,5-diyldi-4,1-phenylene)bis(1-((2R)-2-hydroxy-2-phenylpropanoyl)-2-pyrrolidinecarboxamide)]",< 4.57
10,"C[C@H](NC(=O)c1cccc(F)n1)C(=O)Nc1ccc(-c2nnc(-c3ccc(NC(=O)[C@H](C)NC(=O)c4cccc(F)n4)cc3)o2)cc1 [RK-29, N,N′-(1,3,4-oxadiazole-2,5-diylbis(4,1-phenyleneimino((2S)-1-oxo-1,2-propanediyl)))bis(6-fluoro-2-pyridinecarboxamide)]",1000 to 10000
11,"C[C@H](NC(=O)[C@@](C)(O)c1ccccc1)C(=O)Nc1ccc(-c2nnc(-c3ccc(NC(=O)[C@H](C)NC(=O)[C@@](C)(O)c4ccccc4)cc3)o2)cc1 [RK-30, (2S,2′S)-N,N′-(1,3,4-oxadiazole-2,5-diylbis(4,1-phenyleneimino((2S)-1-oxo-1,2-propanediyl)))bis(2-hydroxy-2-phenylpropanamide)]",100 to 999

# Same assay, conditions: Hepatitis C virus, HCV 1b genotype replicon; read-out: EC50 1b
row,SMILES,EC50 [nM]
1,"C[C@](O)(C(=O)N1CCC[C@H]1C(=O)Nc1ccc(-c2nnc(-c3ccc(NC(=O)[C@@H]4CCCN4C(=O)[C@](C)(O)c4ccccc4)cc3)o2)cc1)c1ccccc1 [RK-28, (2S,2′S)-N,N′-(1,3,4-oxadiazole-2,5-diyldi-4,1-phenylene)bis(1-((2R)-2-hydroxy-2-phenylpropanoyl)-2-pyrrolidinecarboxamide)]",3
